Reference: paper PMC8213153 (PLoS ONE, 2021)
Converted amounts (≈) assume the structure as drawn. Where two headings read alike, the source gives them in different places.

Key:
[1] = Cytotoxicity (MTT) assay of single and dual combinatory drugs; type: cell-based; details: human
Experimental: Each tablet containing drugs was triturated and mixed until homogenous. Approximately 50 mg equivalent mass of drugs were weighed and added to dimethyl sulfoxide in order to solubilize the drugs. The suspension was sonicated in a water bath for 15 minutes before being added to Rosewell Park Memorial Institute (RPMI) media, sonicated again and vortexed to mix it until homogenous. The suspension was then filtered through a polycarbonate membrane with a pore size of 0.45 μm and then a pore size of 0.22 μm under aseptic conditions. The filtrate was mixed with 10% foetal bovine serum and penicillin streptomycin before being vortexed to produce a homogenous mixture to be used as a stock solution. The samples were prepared by diluting the stock solution of each drug with RPMI complete media at an appropriate level of dilution to produce a determined concentration. The dual combinatory drugs mixtures were prepared by mixing appropriate amounts of two drug stock solutions in order to produce a final concentration at the required level. The combinatory drugs were evaluated at both constant and non-constant ratios to evaluate their effects on the cytotoxicity, including; antagonistic, synergistic, or additive. A constant ratio of the mixture was achieved by adding drug solutions at the same ratio, thereby increasing each drug concentration, to produce dose escalation. In contrast, at a non-constant ratio, a fixed determined concentration of drug was added to increased doses of other drug solution in order to produce different levels of drug concentration.
The cytotoxic concentration (CC50) of drugs was performed by means of MTT assay at the Stem Cell Research and Development Center, Universitas Airlangga using human umbilical cord mesenchymal stem cells which had been obtained from human placenta tissue as approved by the Ethical Committee of Universitas Airlangga Hospital (Certificate number 101/KEH/2019 dated January 10, 2019). The cells were prepared as the primary cell culture and used for the cytotoxicity assay because of their sensitivity to chemicals. Cells were seeded into 96-well microplates at a concentration of 1x10^3 cells/well in 100 μL Alpha Minimum Essentials Medium (α-MEM, Gibco, USA) supplemented with 10% foetal bovine serum, 1% penicillin-streptomycin and 1% amphotericin-B. The plates were then incubated in a CO2 incubator at 37°C with 5% CO2 for 24 hours, at which point, the supernatant was replaced with α-MEM containing drugs at each concentration and incubated for a further 48 hours. Approximately 25μL of 3-(4,5-Dimethylthiazol-2-yl)-2,5-diphenyl tetrazolium-bromide (MTT) reagent at a concentration of 5mg/mL was subsequently added to each well and incubated for four hours at 37°C with 5% CO2. Purple formazan crystals were formed and observed under an inverted microscope. Dimethyl sulfoxide was added to each well with the complete solubilisation of formazan crystals subsequently being observed. The greater the number of formazan crystals formed, the lower the toxicity of the samples which were read for optical density of formazan using a multi reader at a measurement wavelength of 595 nm (Promega Glomax, USA). The CC50 value was analyzed by CompuSyn software (the ComboSyn Inc., accessed from www.combosyn.com).
In this study, the cytotoxicity assay was evaluated for single and dual combinatory drugs during a period of 48 hours of drug incubation. This assay was intended to evaluate the toxicity of dual combinatory drugs on normal cells. The combination ratios were calculated taking into consideration the usual therapeutic doses and plasma peak concentrations of the drugs. To determine this cytotoxicity, the drugs were mixed at both constant and non-constant ratios.

SARS-CoV-2 virus = experiment: microbe, parasite or virus in culture; type: cell-based; details: for IC50: Severe acute respiratory syndrome coronavirus 2, Vero
IL-10 = IL-10 level of virus-infected Vero cells (ELISA); type: cell-based
Experimental: (§1) To enable measurement of IL-6, IL-10 and TNF-α levels, the culture medium of the treated cells was collected in sterile micro-tubes and centrifuged at 3,500 rpm for 20 minutes. The supernatants were carefully collected and diluted with aquadest at a 1:5 volume ratio and vortexed until homogenous. The samples were deposited onto a well-plate, added to ELISA reagents (Bioassay Technology Laboratory, Shanghai, China), and incubated at 37°C for 60 minutes. Reagent substrate solution was then added to the well and incubated for ten minutes at 37°C. The samples were measured for antigen concentration using the optical density (OD) plotted into the standard curves of IL-6, IL-10, and TNF-α.

IL-6 = IL-6 level of virus-infected Vero cells (ELISA); type: cell-based
Experimental: as §1

TNF-α = TNF-α level of virus-infected Vero cells (ELISA); type: cell-based
Experimental: as §1

[2] = cited from earlier work

In the case of CC[C@H]1OC(=O)[C@H](C)[C@@H](O[C@H]2C[C@@](C)(OC)[C@@H](O)[C@H](C)O2)[C@H](C)[C@@H](O[C@@H]2O[C@H](C)C[C@H](N(C)C)[C@H]2O)[C@](C)(OC)C[C@@H](C)C(=O)[C@H](C)[C@@H](O)[C@]1(C)O [CLA, Clarithromycin], the CC50 at 48 h ([1]; LOPIRITO-CLA experiment (Fig 5), 48 hours, CompuSyn, n = 3, read-out: CC50) is reported as 2280 µg/mL, the viability at 48 h, 0.2 μg/mL ([1]; LOPIRITO-CLARITHROMYCIN series, 0.2 μg/mL, read-out: Cell Viability (%)) is reported as 134% and the viability at 48 h, 2 μg/mL ([1]; LOPIRITO-CLARITHROMYCIN series, 2 μg/mL, read-out: Cell Viability (%)) is reported as 92.6%. For the same molecule, the viability at 48 h, 10 μg/mL ([1]; LOPIRITO-CLARITHROMYCIN series, 10 μg/mL, read-out: Cell Viability (%)) was 79.4%, the viability at 48 h, 100 μg/mL ([1]; LOPIRITO-CLARITHROMYCIN series, 100 μg/mL, read-out: Cell Viability (%)) was 92.6% and the viability at 48 h, 400 μg/mL ([1]; LOPIRITO-CLARITHROMYCIN series, 400 μg/mL, read-out: Cell Viability (%)) was 74.3%. For the same molecule, the “Virus Titer” value (SARS-CoV-2 virus; 0.5 μg/mL, 24-h) was 38.47 viral protein fg/mL, the “Virus Titer” value (SARS-CoV-2 virus; 8 μg/mL, 24-h) was 38.03 viral protein fg/mL and the “Virus Titer” value (SARS-CoV-2 virus; 8 μg/mL, 48-h) was 39.09 viral protein fg/mL. The “Virus Titer” value (SARS-CoV-2 virus; 8 μg/mL, 72-h) was 37.46 viral protein fg/mL, the “Drug concentration that produced an undetected virus copy number” value (SARS-CoV-2 virus; MoI 0.04, at 24, 48, and/or 72 hours' incubation) was 8 µg/mL and the IC50 (SARS-CoV-2 virus; 24h, MoI 0.04) was 4.6 µg/mL (≈ 6.15 µM). It also gave an IC50 (SARS-CoV-2 virus; 48h, MoI 0.04) of 0.6 µg/mL (≈ 0.802 µM), an IC50 (SARS-CoV-2 virus; 72h, MoI 0.04) of 0.9 µg/mL (≈ 1.2 µM) and an IL-10 (IL-10; 0.5 μg/mL, 24-h) of 36.80 ± 1.13 pg/mL. The IL-10 (IL-10; 0.5 μg/mL, 48-h) was 105.49 ± 1.32 pg/mL, the IL-10 (IL-10; 0.5 μg/mL, 72-h) was 507.18 ± 0.00 pg/mL and the IL-10 (IL-10; 4 μg/mL, 24-h) was 36.80 ± 0.08 pg/mL. The IL-10 (IL-10; 4 μg/mL, 48-h) was 58.15 ± 1.41 pg/mL, the IL-10 (IL-10; 4 μg/mL, 72-h) was 498.75 ± 0.00 pg/mL and the IL-10 (IL-10; 8 μg/mL, 24-h) was 24.75 ± 0.58 pg/mL. The IL-10 (IL-10; 8 μg/mL, 48-h) was 79.10 ± 0.00 pg/mL, the IL-10 (IL-10; 8 μg/mL, 72-h) was 445.89 ± 0.07 pg/mL and the IL-10 (IL-10; 8 μg/mL, 48h) was “↗↗ (8 μg/mL; 48h)”. For the same molecule, the “IL-10 levels (in words)” value (IL-10; Table 5) was “increased”, the IL-6 (IL-6; 0.5 μg/mL, 24-h) was 15.61 ± 0.85 ng/L and the IL-6 (IL-6; 0.5 μg/mL, 48-h) was 28.56 ± 0.62 ng/L. It also gave an IL-6 (IL-6; 0.5 μg/mL, 72-h) of 48.22 ± 0.35 ng/L, an IL-6 (IL-6; 4 μg/mL, 24-h) of 14.85 ± 0.51 ng/L and an IL-6 (IL-6; 4 μg/mL, 48-h) of 30.07 ± 0.09 ng/L. For the same molecule, the IL-6 (IL-6; 4 μg/mL, 72-h) was 51.13 ± 0.94 ng/L, the IL-6 (IL-6; 8 μg/mL, 24-h) was 15.61 ± 0.57 ng/L and the IL-6 (IL-6; 8 μg/mL, 48-h) was 34.67 ± 0.50 ng/L. For the same molecule, the IL-6 (IL-6; 8 μg/mL, 72-h) was 64.93 ± 2.50 ng/L, the IL-6 (IL-6; 1, 4, 8 μg/mL, 24, 48, 72h) was “↘↘ (1, 4, 8 μg/mL; 24, 48, 72h)” and the “IL-6 (in words)” value (IL-6; Table 5) was “reduced”. It also gave a TNF-α (TNF-α; 0.5 μg/mL, 24-h) of 20.39 ± 0.57 pg/mL, a TNF-α (TNF-α; 0.5 μg/mL, 48-h) of 426.37 ± 1.40 pg/mL and a TNF-α (TNF-α; 0.5 μg/mL, 72-h) of 612.06 ± 1.54 pg/mL. The TNF-α (TNF-α; 4 μg/mL, 24-h) was 100.04 ± 1.44 pg/mL, the TNF-α (TNF-α; 4 μg/mL, 48-h) was 404.07 ± 0.10 pg/mL and the TNF-α (TNF-α; 4 μg/mL, 72-h) was 609.56 ± 0.14 pg/mL. For the same molecule, the TNF-α (TNF-α; 8 μg/mL, 24-h) was 43.92 ± 1.13 pg/mL, the TNF-α (TNF-α; 8 μg/mL, 48-h) was 382.62 ± 0.86 pg/mL and the TNF-α (TNF-α; 8 μg/mL, 72-h) was 609.56 ± 0.14 pg/mL. The TNF-α (TNF-α; 24, 48, and 72 hours, cell without concentration) was “No effects”, the “TNF-α levels (in words)” value (TNF-α; Table 5) was “no effects” and the “Peak Plasma Concentration” value ([2]; oral 250 mg Clarithromycin twice a day) was 1 µg/mL. For the same molecule, the “Peak Plasma Concentration” value ([2]; oral 500 mg Clarithromycin twice a day) was 2.41 µg/mL.
